Test results taken from ChEMBL document CHEMBL3885881, “DrugMatrix”.
Where “and” joins values, the source holds several entries; their conditions need not be identical. Equal entries are not always repeated.

Organism: Rattus norvegicus
Assay: DrugMatrix - Regimen: Daily Repeat
Format: toxicity, organism-based, Sprague-Dawley
Design: regimen Daily Repeat, gender Male, age 6-8 weeks
Conditions: in vivo, vehicle 100 % SALINE; for ALANINE AMINOTRANSFERASE / ALBUMIN / ALKALINE PHOSPHATASE / ASPARTATE AMINOTRANSFERASE / BLOOD UREA NITROGEN / CARBON DIOXIDE / CHOLESTEROL / CREATINE PHOSPHOKINASE / CREATININE / GLUCOSE / LACTATE DEHYDROGENASE / LIPASE / PHOSPHORUS / POTASSIUM / SODIUM / TOTAL BILIRUBIN / TOTAL PROTEIN / URIC ACID / CHLORIDE: tissue Plasma
[1] = ip, 0 mg/kg, 120 h, tissue Blood, route intraperitoneal, dose level Control, time 5 day
[2] = ip, 0 mg/kg, 120 h, route intraperitoneal, dose level Control, time 5 day
[3] = ip, 0 mg/kg, […], tissue Blood, route intraperitoneal, dose level Control, time 14 day
[4] = ip, 0 mg/kg, […], tissue Blood, route intraperitoneal, dose level Control, time 28 day
[5] = ip, 0 mg/kg, […], route intraperitoneal, dose level Control, time 14 day
[6] = ip, 0 mg/kg, […], route intraperitoneal, dose level Control, time 28 day
[7] = ip, 2 mg/kg, 120 h, tissue Blood, route intraperitoneal, dose level High, time 5 day
[8] = ip, 2 mg/kg, 120 h, route intraperitoneal, dose level High, time 5 day
[9] = ip, 2 mg/kg, […], tissue Blood, route intraperitoneal, dose level High, time 14 day
[10] = ip, 2 mg/kg, […], tissue Blood, route intraperitoneal, dose level High, time 28 day
[11] = ip, 2 mg/kg, […], route intraperitoneal, dose level High, time 14 day
[12] = ip, 2 mg/kg, […], route intraperitoneal, dose level High, time 28 day
[13] = po, 0 mg/kg, 72 h, tissue Blood, route oral GAVAGE, dose level Control, time 3 day

## LEAD (II) ACETATE
[1]
  ABSOLUTE BASOPHIL: 32 cells/µL
  ABSOLUTE EOSINOPHIL: 110 cells/µL
  ABSOLUTE LYMPHOCYTE: 6630 cells/µL
  ABSOLUTE MONOCYTE: 140 cells/µL
  ABSOLUTE SEGMENTED NEUTROPHIL: 1170 cells/µL
  BASOPHIL: 0.38% and 0.35%
  EOSINOPHIL: 1.28% and 0.62%
  ERYTHROCYTE COUNT: 7.45 x10E6/uL and 7.26 x10E6/uL
  HEMATOCRIT: 45.74% and 47.97%
  HEMOGLOBIN: 14.72 G/DL and 15.38 G/DL
  LEUKOCYTE COUNT: 8.11 x10E3/uL and 8.68 x10E3/uL
  LYMPHOCYTE: 81.3% and 86.77%
  MEAN CORPUSCULAR HEMOGLOBIN: 19.76 pg and 21.18 pg
  MEAN CORPUSCULAR HEMOGLOBIN CONCENTRATION: 32.16 G/DL and 32.05 G/DL
  MEAN CORPUSCULAR VOLUME: 61.38 fL and 66.15 fL
  MONOCYTE: 1.76% and 1.57%
  NEUTROPHIL: 14.9% and 9.53%
  PLATELET COUNT: 1322.4 x10E3/uL and 1786 x10E3/uL
[2]
  ALANINE AMINOTRANSFERASE: 25.8 u/L and 20.5 u/L
  ALBUMIN: 3.64 G/DL and 4.35 G/DL
  ALKALINE PHOSPHATASE: 300 u/L
  ASPARTATE AMINOTRANSFERASE: 81.4 u/L and 86.75 u/L
  BLOOD UREA NITROGEN: 14.4 mg/dL and 17 mg/dL
  CARBON DIOXIDE: 29 mmol/L
  CHOLESTEROL: 69.2 mg/dL and 51.25 mg/dL
  CREATINE PHOSPHOKINASE: 303.2 u/L and 384.75 u/L
  CREATININE: 0.56 mg/dL and 0.47 mg/dL
  GLUCOSE: 125.4 mg/dL and 128.75 mg/dL
  LACTATE DEHYDROGENASE: 105.4 u/L and 145 u/L
  LIPASE: 22.4 u/L and 13.25 u/L
  PHOSPHORUS: 11.8 mg/dL
  POTASSIUM: 5.52 MEQ/L and 6.58 MEQ/L
  SODIUM: 147 MEQ/L and 151 MEQ/L
  TOTAL BILIRUBIN: 0.2 mg/dL and 0.33 mg/dL
  TOTAL PROTEIN: 6.1 G/DL and 6.53 G/DL
  URIC ACID: 1.06 mg/dL and 1.95 mg/dL
[3]
  ABSOLUTE BASOPHIL: 130 cells/µL
  ABSOLUTE EOSINOPHIL: 140 cells/µL
  ABSOLUTE LYMPHOCYTE: 13500 cells/µL
  ABSOLUTE MONOCYTE: 400 cells/µL
  ABSOLUTE SEGMENTED NEUTROPHIL: 2330 cells/µL
  HEMATOCRIT: 45.98%
  HEMOGLOBIN: 15.17 G/DL
  MEAN CORPUSCULAR VOLUME: 59.4 fL
  NEUTROPHIL: 14.14%
[4]
  ABSOLUTE BASOPHIL: 91 cells/µL
  ABSOLUTE EOSINOPHIL: 110 cells/µL
  ABSOLUTE LYMPHOCYTE: 9910 cells/µL
  ABSOLUTE MONOCYTE: 210 cells/µL
  ABSOLUTE SEGMENTED NEUTROPHIL: 1560 cells/µL
  BASOPHIL: 0.77%
  EOSINOPHIL: 0.92%
  ERYTHROCYTE COUNT: 8.21 x10E6/uL
  HEMATOCRIT: 47.53%
  HEMOGLOBIN: 15.65 G/DL
  LEUKOCYTE COUNT: 11.91 x10E3/uL
  LYMPHOCYTE: 83.34%
  MEAN CORPUSCULAR HEMOGLOBIN: 19.07 pg
  MEAN CORPUSCULAR HEMOGLOBIN CONCENTRATION: 32.93 G/DL
  MEAN CORPUSCULAR VOLUME: 57.9 fL
  MONOCYTE: 1.68%
  NEUTROPHIL: 12.97%
  PLATELET COUNT: 1323.8 x10E3/uL
[5]
  ALBUMIN: 3.66 G/DL
  CARBON DIOXIDE: 25 mmol/L
  CHLORIDE: 107 MEQ/L
  CREATINE PHOSPHOKINASE: 410.25 u/L
  SODIUM: 149.2 MEQ/L
  URIC ACID: 0.94 mg/dL
[6]
  ALANINE AMINOTRANSFERASE: 30 u/L
  ALBUMIN: 3.71 G/DL
  ALKALINE PHOSPHATASE: 186.8 u/L
  ASPARTATE AMINOTRANSFERASE: 78.2 u/L
  BLOOD UREA NITROGEN: 14.2 mg/dL
  CHOLESTEROL: 44.9 mg/dL
  CREATINE PHOSPHOKINASE: 334.3 u/L
  CREATININE: 0.6 mg/dL
  GLUCOSE: 147.2 mg/dL
  LACTATE DEHYDROGENASE: 123.1 u/L
  LIPASE: 9.6 u/L
  PHOSPHORUS: 10.01 mg/dL
  POTASSIUM: 6.57 MEQ/L
  SODIUM: 149.5 MEQ/L
  TOTAL BILIRUBIN: 0.21 mg/dL
  TOTAL PROTEIN: 6.66 G/DL
  URIC ACID: 1.26 mg/dL
[7]
  ABSOLUTE BASOPHIL: 120 cells/µL
  ABSOLUTE EOSINOPHIL: 150 cells/µL
  ABSOLUTE LYMPHOCYTE: 10100 cells/µL
  ABSOLUTE MONOCYTE: 250 cells/µL
  ABSOLUTE SEGMENTED NEUTROPHIL: 2470 cells/µL
  BASOPHIL: 0.92% and 0.35%
  EOSINOPHIL: 1.12% and 0.5%
  ERYTHROCYTE COUNT: 7.54 x10E6/uL and 7.26 x10E6/uL
  HEMATOCRIT: 45.88% and 47.9%
  HEMOGLOBIN: 15 G/DL and 15.17 G/DL
  LEUKOCYTE COUNT: 13.21 x10E3/uL and 9.67 x10E3/uL
  LYMPHOCYTE: 76.12% and 82.6%
  MEAN CORPUSCULAR HEMOGLOBIN: 20.9 pg
  MEAN CORPUSCULAR HEMOGLOBIN CONCENTRATION: 32.66 G/DL and 31.67 G/DL
  MEAN CORPUSCULAR VOLUME: 66 fL
  MONOCYTE: 1.94% and 1.57%
  NEUTROPHIL: 19.32% and 13.95%
  PLATELET COUNT: 1605.4 x10E3/uL and 1679.25 x10E3/uL
[8]
  ALANINE AMINOTRANSFERASE: 30.6 u/L and 16 u/L
  ALBUMIN: 3.32 G/DL and 4.1 G/DL
  ALKALINE PHOSPHATASE: 221 u/L and 290.75 u/L
  ASPARTATE AMINOTRANSFERASE: 83.2 u/L and 78.25 u/L
  BLOOD UREA NITROGEN: 13.8 mg/dL and 16.75 mg/dL
  CARBON DIOXIDE: 24 mmol/L
  CHLORIDE: 109.2 MEQ/L and 108.75 MEQ/L
  CHOLESTEROL: 57 mg/dL and 58.25 mg/dL
  CREATINE PHOSPHOKINASE: 338.6 u/L and 224.25 u/L
  CREATININE: 0.54 mg/dL and 0.4 mg/dL
  GLUCOSE: 117.4 mg/dL and 114.75 mg/dL
  LACTATE DEHYDROGENASE: 76.2 u/L
  LIPASE: 36 u/L and 14.25 u/L
  PHOSPHORUS: 10.02 mg/dL and 13.3 mg/dL
  POTASSIUM: 6.38 MEQ/L and 6.15 MEQ/L
  SODIUM: 151.2 MEQ/L and 152.25 MEQ/L
  TOTAL BILIRUBIN: 0.16 mg/dL and 0.3 mg/dL
  TOTAL PROTEIN: 5.8 G/DL and 6.3 G/DL
  URIC ACID: 1.08 mg/dL and 2.1 mg/dL
[9]
  ABSOLUTE BASOPHIL: 88 cells/µL
  ABSOLUTE EOSINOPHIL: 74 cells/µL
  ABSOLUTE LYMPHOCYTE: 8320 cells/µL
  ABSOLUTE MONOCYTE: 390 cells/µL
  ABSOLUTE SEGMENTED NEUTROPHIL: 3420 cells/µL
  HEMOGLOBIN: 14.2 G/DL
  MEAN CORPUSCULAR VOLUME: 59.1 fL
[10]
  ABSOLUTE BASOPHIL: 93 cells/µL
  ABSOLUTE EOSINOPHIL: 130 cells/µL
  ABSOLUTE LYMPHOCYTE: 9520 cells/µL
  ABSOLUTE MONOCYTE: 320 cells/µL
  ABSOLUTE SEGMENTED NEUTROPHIL: 2680 cells/µL
  BASOPHIL: 0.79%
  EOSINOPHIL: 1.01%
  ERYTHROCYTE COUNT: 8.38 x10E6/uL
  HEMATOCRIT: 46.51%
  HEMOGLOBIN: 14.88 G/DL
  LEUKOCYTE COUNT: 12.81 x10E3/uL
  LYMPHOCYTE: 74.22%
  MEAN CORPUSCULAR HEMOGLOBIN: 17.76 pg
  MEAN CORPUSCULAR HEMOGLOBIN CONCENTRATION: 32.02 G/DL
  MEAN CORPUSCULAR VOLUME: 55.46 fL
  MONOCYTE: 2.51%
  NEUTROPHIL: 20.93%
  PLATELET COUNT: 1429.8 x10E3/uL
[11]
  CARBON DIOXIDE: 26 mmol/L
  TOTAL PROTEIN: 5.9 G/DL
[12]
  ALANINE AMINOTRANSFERASE: 25.8 u/L
  ALBUMIN: 3.52 G/DL
  ALKALINE PHOSPHATASE: 146.4 u/L
  ASPARTATE AMINOTRANSFERASE: 80.7 u/L
  BLOOD UREA NITROGEN: 13.3 mg/dL
  CHLORIDE: 109.1 MEQ/L
  CHOLESTEROL: 54 mg/dL
  CREATINE PHOSPHOKINASE: 159.1 u/L
  CREATININE: 0.58 mg/dL
  GLUCOSE: 112.6 mg/dL
  LACTATE DEHYDROGENASE: 73.7 u/L
  LIPASE: 26.7 u/L
  PHOSPHORUS: 9.13 mg/dL
  POTASSIUM: 6.27 MEQ/L
  SODIUM: 150.5 MEQ/L
  TOTAL BILIRUBIN: 0.21 mg/dL
  TOTAL PROTEIN: 6.39 G/DL
  URIC ACID: 1.41 mg/dL
[13]
  ABSOLUTE BASOPHIL: 0 CELLS/uL
  ABSOLUTE EOSINOPHIL: 37 CELLS/uL
  ABSOLUTE LYMPHOCYTE: 12359.33 CELLS/uL
  ABSOLUTE MONOCYTE: 122.67 CELLS/uL
  ABSOLUTE SEGMENTED NEUTROPHIL: 847.67 CELLS/uL
  BASOPHIL: 0%
  EOSINOPHIL: 0.33%
  ERYTHROCYTE COUNT: 5.75 x10E6/uL
  HEMATOCRIT: 36.08%
  LEUKOCYTE COUNT: 13.37 x10E3/uL
  MEAN CORPUSCULAR HEMOGLOBIN CONCENTRATION: 38.98 G/DL
  MONOCYTE: 1%
  NEUTROPHIL: 6.17%
  NUCLEATED RED BLOOD CELLS: 0.17 /100WBC
  PLATELET COUNT: 1202.17 x10E3/uL
